According to paper PMC6315376 (Cell Reports, 2019):

Legend:
AAK1 [1] = target: T1, AAK1 (Homo sapiens, UniProt Q2M2I8); test: biochemical; type: binding
Target sequence in this assay (Q2M2I8 31-396): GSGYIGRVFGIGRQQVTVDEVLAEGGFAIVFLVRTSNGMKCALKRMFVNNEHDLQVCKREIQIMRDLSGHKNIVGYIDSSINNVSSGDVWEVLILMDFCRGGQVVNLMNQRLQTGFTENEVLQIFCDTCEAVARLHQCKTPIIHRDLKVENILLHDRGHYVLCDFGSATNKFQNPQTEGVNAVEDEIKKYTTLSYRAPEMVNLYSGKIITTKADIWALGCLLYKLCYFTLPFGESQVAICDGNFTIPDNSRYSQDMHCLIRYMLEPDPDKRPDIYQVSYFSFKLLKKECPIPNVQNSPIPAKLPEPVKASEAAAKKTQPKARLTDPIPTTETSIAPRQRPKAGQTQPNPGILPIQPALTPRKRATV

PIP5K1C = PIP5K1C (Homo sapiens, UniProt O60331); test: PIP5K1C enzyme assay, ADP-Glo format; type: biochemical
AAK1 [2] = target: T1, AAK1; test: biochemical; conditions: IC50 for inhibition of AAK1 enzymatic activity, 46 μM ATP (at Km)
Target sequence in this assay (Q2M2I8 27-365): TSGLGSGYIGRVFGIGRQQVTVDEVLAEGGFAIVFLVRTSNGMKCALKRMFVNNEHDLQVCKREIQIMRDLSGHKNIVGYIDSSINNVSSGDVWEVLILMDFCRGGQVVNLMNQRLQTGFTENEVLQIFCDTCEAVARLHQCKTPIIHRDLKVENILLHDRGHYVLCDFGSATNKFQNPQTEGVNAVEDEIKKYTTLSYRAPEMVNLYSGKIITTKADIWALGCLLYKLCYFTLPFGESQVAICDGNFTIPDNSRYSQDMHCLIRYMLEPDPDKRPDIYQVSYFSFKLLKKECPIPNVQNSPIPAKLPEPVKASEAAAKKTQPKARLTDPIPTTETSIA

phospho-AP2M1 (T156) = test: Western blot of phospho-AP2M1; type: cell-based, human; conditions: HT1080 cells, 1 μM, without WNT3A
phospho-AP2M1 (Thr156) = test: Western blot of phospho-AP2M1; type: cell-based, human; conditions: HEK293T cells, 2 hr, concentration-dependent
LRP6 surface levels = test: LRP6 surface staining by flow cytometry in HEK293T cells; type: cell-based, human; conditions: co-treatment with WNT3A, 8 hr
LRP6 = test: Western blot of endogenous LRP6 in HEK293T cells overexpressing AAK1; type: cell-based, human; conditions: FLAG-AAK1 overexpression, 100 nm, 6 hr
[3] = system: β-catenin-activated Firefly luciferase reporter (BAR); test: BAR luciferase reporter assay in HT1080-B/R stable cells; type: cell-based, human; conditions: AAK1 siRNA 56 hr, then treatment 16 hr

PIP5K1C, sequence (O60331 whole entry): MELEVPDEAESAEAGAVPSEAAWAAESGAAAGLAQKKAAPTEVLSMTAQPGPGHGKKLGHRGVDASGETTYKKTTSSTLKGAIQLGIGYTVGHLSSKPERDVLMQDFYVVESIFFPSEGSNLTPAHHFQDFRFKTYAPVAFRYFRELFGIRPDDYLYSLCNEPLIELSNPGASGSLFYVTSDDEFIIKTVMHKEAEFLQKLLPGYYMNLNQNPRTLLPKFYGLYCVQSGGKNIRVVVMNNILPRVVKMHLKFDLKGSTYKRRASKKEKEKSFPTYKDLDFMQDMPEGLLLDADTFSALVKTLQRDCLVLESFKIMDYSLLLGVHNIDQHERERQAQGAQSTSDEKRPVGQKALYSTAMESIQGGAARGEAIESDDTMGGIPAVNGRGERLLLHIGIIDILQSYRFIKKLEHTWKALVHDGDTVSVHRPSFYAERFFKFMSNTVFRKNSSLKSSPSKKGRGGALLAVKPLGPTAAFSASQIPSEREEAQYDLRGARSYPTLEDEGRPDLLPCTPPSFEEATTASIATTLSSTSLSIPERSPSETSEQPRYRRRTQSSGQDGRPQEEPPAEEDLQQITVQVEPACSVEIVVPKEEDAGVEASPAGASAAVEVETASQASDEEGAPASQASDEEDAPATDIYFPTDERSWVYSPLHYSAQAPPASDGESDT

## CC(C)C(=O)Nc1n[nH]c2cc(-c3cccc(NS(=O)(=O)C4CC4)c3)ccc12 [34A, N-(6-(3-(cyclopropanesulfonamido)phenyl)-1H-indazol-3-yl)isobutyramide]
AAK1 [1]
  Ki: 2000 nM
PIP5K1C
  IC50: 3.6 µM
AAK1 [2]
  IC50: > 1000 nM

## Cc1c[nH]c(-c2cnc(NCCNc3ccc(C#N)cn3)nc2-c2ccc(Cl)cc2Cl)n1 [CHIR99021]
phospho-AP2M1 (T156)
  pAP2M1 levels: did not result in elevated pAP2M1 levels

## CCN(CC)S(=O)(=O)Nc1cccc(-c2ccc3c(NC(=O)C4CC4)n[nH]c3c2)c1 [SGC-AAK1-1, N-(6-(3-((N,N-diethylsulfamoyl)amino)phenyl)-1H-indazol-3-yl)cyclopropanecarboxamide]
phospho-AP2M1 (Thr156)
  phosphorylation of the AP2M1 subunit at Thr156: inhibited the phosphorylation of the AP2M1 subunit at Thr156
LRP6 surface levels
  rescue of the WNT3A-induced decrease of LRP6 surface levels: rescued

## CO/C1=C\C(C)=C\[C@@H](C)[C@@H](O)[C@@H](C)C/C(C)=C/C=C/[C@H](OC)[C@@H]([C@@H](C)[C@@H](O)[C@H](C)[C@@]2(O)C[C@@H](O)[C@H](C)[C@@H](C(C)C)O2)OC1=O [bafilomycin A1]
LRP6
  AAK1-driven downregulation of LRP6: rescued AAK1-driven downregulation of LRP6

## CN(C)CCCN1c2ccccc2Sc2ccc(Cl)cc21 [chlorpromazine]
[3]
  WNT signaling (BAR) induced by AAK1 silencing: suppressed WNT signaling induced by AAK1 silencing
